From patent US20090247548A1, “PYRROLOPYRIMIDINE DERIVATIVES FOR TREATING PROLIFERATIVE DISEASES” (priority 2004, published 2009)

- melting point: 240 to 242 °C
SMILES: C[C@@H](Nc1ncnc2[nH]c(-c3ccc(CN4CCNCC4)cc3)cc12)c1ccccc1 [Example 1, ((R)-1-Phenyl-ethyl)-[6-(4-piperazin-1-ylmethyl-phenyl)-7H-pyrrolo[2,3-d]pyrimidin-4-yl]-amine]
